Results from patent publication US3960877A, “N-monosubstituted-2,3-pyridinedicarboxamides, and related compounds” (priority 1974, dated 1976).

Columns and labels:
Format in all cases: in vivo
[1] = tested on: Curled Dock; assay: Postemergence herbicidal activity, % control of plant growth; conditions: post-emergence, 264 h, 8 lb/acre, about 11 days
Outline: (§1)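 Plants sprayed about 2 weeks after sowing with compound at 8 lb/acre, applied from roughly 2 wt% solution in acetone and/or alcohol. Growth control rated visually about 11 days after spraying and reported as percent control.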

[2] = tested on: Chickweed; assay: as above; conditions: post-emergence, 264 h, 8 lb/acre, about 11 days
Outline: as §1

[3] = tested on: Cucumber; assay: as above; conditions: Cucumis sativus, post-emergence, 264 h, 8 lb/acre, about 11 days
Outline: as §1

[4] = tested on: Crabgrass; assay: as above; conditions: Digitaria sanguinalis, post-emergence, 264 h, 8 lb/acre, about 11 days
Outline: as §1

[5] = tested on: Wild Oats; assay: as above; conditions: Avena fatua, post-emergence, 264 h, 8 lb/acre, about 11 days
Outline: as §1

[6] = tested on: Alfalfa; assay: as above; conditions: Medicago sativa, post-emergence, 264 h, 8 lb/acre, about 11 days
Outline: as §1

[7] = tested on: Barnyard Grass; assay: as above; conditions: Echinochloa crus-galli, post-emergence, 264 h, 8 lb/acre, about 11 days
Outline: as §1

[8] = tested on: Lambsquarters; assay: as above; conditions: Chenopodium album, post-emergence, 264 h, 8 lb/acre, about 11 days
Outline: as §1

[9] = tested on: Pigweed; assay: as above; conditions: Amaranthus retroflexus, post-emergence, 264 h, 8 lb/acre, about 11 days
Outline: as §1

[10] = tested on: Foxtail; assay: as above; conditions: Setaria, post-emergence, 264 h, 8 lb/acre, about 11 days
Outline: as §1

[11] = tested on: Johnsongrass; assay: as above; conditions: Sorghum halepense, post-emergence, 264 h, 8 lb/acre, about 11 days
Outline: as §1

[12] = tested on: Velvetleaf; assay: as above; conditions: Abutilon theophrasti, post-emergence, 264 h, 8 lb/acre, about 11 days
Outline: as §1

[13] = tested on: Yellow Rocket; assay: as above; conditions: post-emergence, 264 h, 8 lb/acre, about 11 days
Outline: as §1

[14] = tested on: Nutgrass; assay: as above; conditions: post-emergence, 264 h, 8 lb/acre, about 11 days
Outline: as §1

[15] = tested on: Cheatgrass; assay: as above; conditions: Bromus tectorum, post-emergence, 264 h, 8 lb/acre, about 11 days
Outline: as §1

[16] = tested on: Snapbeans; assay: as above; conditions: post-emergence, 264 h, 8 lb/acre, about 11 days
Outline: as §1

[17] = tested on: Corn; assay: as above; conditions: Zea mays, post-emergence, 264 h, 8 lb/acre, about 11 days
Outline: as §1

[18] = tested on: Curled Dock; assay: Preemergence herbicidal activity, % control of plant growth; conditions: for pest or weed control at 17933.6 g/ha: pre-emergence, 504 h, 16 lb/acre, about 3 weeks
Outline: (§2)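 Soil sprayed right after sowing, before visible growth, with about a 2 wt% compound solution in acetone and/or alcohol at 16 lb/acre. Roughly 3 weeks later, activity rated visually against untreated areas as percent control of plant growth.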

[19] = tested on: Chickweed; assay: as above; conditions: pre-emergence, 504 h, 16 lb/acre, about 3 weeks
Outline: as §2

[20] = tested on: Cucumber; assay: as above; conditions: for pest or weed control at 17933.6 g/ha: Cucumis sativus, pre-emergence, 504 h, 16 lb/acre, about 3 weeks
Outline: as §2

[21] = tested on: Crabgrass; assay: as above; conditions: for pest or weed control at 17933.6 g/ha: Digitaria sanguinalis, pre-emergence, 504 h, 16 lb/acre, about 3 weeks
Outline: as §2

[22] = tested on: Wild Oats; assay: as above; conditions: for pest or weed control at 17933.6 g/ha: Avena fatua, pre-emergence, 504 h, 16 lb/acre, about 3 weeks
Outline: as §2

[23] = tested on: Alfalfa; assay: as above; conditions: for pest or weed control at 17933.6 g/ha: Medicago sativa, pre-emergence, 504 h, 16 lb/acre, about 3 weeks
Outline: as §2

[24] = tested on: Barnyard Grass; assay: as above; conditions: for pest or weed control at 17933.6 g/ha: Echinochloa crus-galli, pre-emergence, 504 h, barnyard grass, 16 lb/acre, about 3 weeks
Outline: as §2

[25] = tested on: Lambsquarters; assay: as above; conditions: for pest or weed control at 17933.6 g/ha: Chenopodium album, pre-emergence, 504 h, 16 lb/acre, about 3 weeks
Outline: as §2

[26] = tested on: Pigweed; assay: as above; conditions: for pest or weed control at 17933.6 g/ha: Amaranthus retroflexus, pre-emergence, 504 h, 16 lb/acre, about 3 weeks
Outline: as §2

[27] = tested on: Foxtail; assay: as above; conditions: for pest or weed control at 17933.6 g/ha: Setaria, pre-emergence, 504 h, 16 lb/acre, about 3 weeks
Outline: as §2

[28] = tested on: Johnsongrass; assay: as above; conditions: for pest or weed control at 17933.6 g/ha: Sorghum halepense, pre-emergence, 504 h, 16 lb/acre, about 3 weeks
Outline: as §2

[29] = tested on: Velvetleaf; assay: as above; conditions: Abutilon theophrasti, pre-emergence, 504 h, 16 lb/acre, about 3 weeks
Outline: as §2

[30] = tested on: Yellow Rocket; assay: as above; conditions: pre-emergence, 504 h, 16 lb/acre, about 3 weeks
Outline: as §2

[31] = tested on: Nutgrass; assay: as above; conditions: pre-emergence, 504 h, 16 lb/acre, about 3 weeks
Outline: as §2

[32] = tested on: Cheatgrass; assay: as above; conditions: for pest or weed control at 17933.6 g/ha: Bromus tectorum, pre-emergence, 504 h, 16 lb/acre, about 3 weeks
Outline: as §2

[33] = tested on: Snapbeans; assay: as above; conditions: pre-emergence, 504 h, 16 lb/acre, about 3 weeks
Outline: as §2

[34] = tested on: Corn; assay: as above; conditions: for plant injury at 17933.6 g/ha: Zea mays, pre-emergence, 504 h, 16 lb/acre, about 3 weeks
Outline: as §2

[35] = tested on: undesirable plants of both the monocotyledonous and the dicotyledonous species; assay: Herbicidal activity, general; conditions: for effective application rate: relative to 3-isopropyl-pyrido[3,2-d]pyrimidine-2,4(1H,3H)-dione, preemergence or postemergence; for order of herbicidal activity: in vivo
Text: All of the 3-substituted compounds of the pyrido [3,2-d]pyrimidine-2,4(1H,3H)-dione and lumazine families made from intermediate amides produced by the method of this invention have an unexpectedly high order of herbicidal activity.
(§3) In using the compound, seeds of the types of plants set forth in Table II were sown in fresh soil. In the preemergence test the soil was sprayed with a solution of the test compound immediately after the seeds were planted, and before any noticeable growth developed. The solution was about a 2 percent by weight solution of the compound in acetone and/or alcohol. The compound was applied at the rate of 16 pounds per acre of soil surface.
(§4) Approximately 3 weeks after spray application, the herbicidal activity of the compound was determined by visual observation of the treated area in comparison with untreated control areas. These observations are reported below in Table II wherein the average activity rating is reported as the percent control of plant growth.
In the postemergence test the soil and developing plants were sprayed approximately 2 weeks after the seeds were sown. The compound was applied at the rate of 8 pounds per acre from about a 2 percent by weight solution of the test compound in acetone and/or alcohol. The postemergence herbicidal activity was measured in the same way as the preemergence activity; i.e. visual observation approximately 11 days after spraying, and expressed as the percent control of plant growth.

[36] = tested on: volunteer soybeans; assay: Herbicidal activity at 16 pounds per acre, % control
Text: as §3, §4

Compound	pest or weed control at 8966.8 g/ha [1] [%]	pest or weed control at 8966.8 g/ha [2] [%]	pest or weed control at 8966.8 g/ha [3] [%]	pest or weed control at 8966.8 g/ha [4] [%]	pest or weed control at 8966.8 g/ha [5] [%]	pest or weed control at 8966.8 g/ha [6] [%]	pest or weed control at 8966.8 g/ha [7] [%]	pest or weed control at 8966.8 g/ha [8] [%]	pest or weed control at 8966.8 g/ha [9] [%]	pest or weed control at 8966.8 g/ha [10] [%]	pest or weed control at 8966.8 g/ha [11] [%]	pest or weed control at 8966.8 g/ha [12] [%]	pest or weed control at 8966.8 g/ha [13] [%]	pest or weed control at 8966.8 g/ha [14] [%]	pest or weed control at 8966.8 g/ha [15] [%]	pest or weed control at 17933.6 g/ha [19] [%]	pest or weed control at 17933.6 g/ha [29] [%]	pest or weed control at 17933.6 g/ha [30] [%]	pest or weed control at 17933.6 g/ha [31] [%]	pest or weed control at 17933.6 g/ha [33] [%]	other results
O=c1[nH]c2cccnc2c(=O)n1C1CCCCC1 [3-cyclohexyl-pyrido[3,2-d] pyrimidine-2,4(1H,3H)-dione]	100	100	100	100	100	30	100	100	100	100	100	100	100	100	80	100	100	100	100	100	pest or weed control at 8966.8 g/ha [16]: 80%; plant injury at 8966.8 g/ha [17]: 40%; pest or weed control at 17933.6 g/ha [18]: 100%; pest or weed control at 17933.6 g/ha [20]: 100%; pest or weed control at 17933.6 g/ha [21]: 100%; pest or weed control at 17933.6 g/ha [22]: 100%; pest or weed control at 17933.6 g/ha [23]: 100%; pest or weed control at 17933.6 g/ha [24]: 100%; pest or weed control at 17933.6 g/ha [25]: 100%; pest or weed control at 17933.6 g/ha [26]: 100%; pest or weed control at 17933.6 g/ha [27]: 100%; pest or weed control at 17933.6 g/ha [28]: 100%; pest or weed control at 17933.6 g/ha [32]: 100%; plant injury at 17933.6 g/ha [34]: 90%; effective application rate [35]: substantially the same application rates, e.g., as similar or salt solutions in water, are effective
CCn1c(=O)[nH]c2ncccc2c1=O [3-ethyl-pyrido[2,3-d]pyrimidine-2,4 (1H,3H)-dione]	–	–	–	–	–	–	–	–	–	–	–	–	–	–	–	80	80	80	90	100	herbicidal activity/control ([18]; 16 pounds per acre): no significant control; herbicidal activity/control ([20]; 16 pounds per acre): no significant control; herbicidal activity/control ([21]; 16 pounds per acre): no significant control; herbicidal activity/control ([22]; 16 pounds per acre): no significant control; herbicidal activity/control ([23]; 16 pounds per acre): no significant control; herbicidal activity/control ([24]; barnyardgrass, 16 pounds per acre): no significant control; herbicidal activity/control ([25]; 16 pounds per acre): no significant control; herbicidal activity/control ([26]; 16 pounds per acre): no significant control; herbicidal activity/control ([27]; 16 pounds per acre): no significant control; herbicidal activity/control ([28]; 16 pounds per acre): no significant control; herbicidal activity/control ([32]; 16 pounds per acre): no significant control; herbicidal activity/control ([34]; 16 pounds per acre): no significant control; order of herbicidal activity [35]: comparatively low order; percent control [36]: 100%
CC(C)n1c(=O)[nH]c2cccnc2c1=O [3-isopropyl-pyrido[3,2-d]pyrimidine-2,4(1H,3H)-dione]	100	70	100	100	70	90	80	100	100	100	90	100	100	50	50	100	100	100	20	100	pest or weed control at 8966.8 g/ha [16]: 90%; plant injury at 8966.8 g/ha [17]: 30%; pest or weed control at 17933.6 g/ha [18]: 100%; pest or weed control at 17933.6 g/ha [20]: 100%; pest or weed control at 17933.6 g/ha [21]: 100%; pest or weed control at 17933.6 g/ha [22]: 100%; pest or weed control at 17933.6 g/ha [23]: 100%; pest or weed control at 17933.6 g/ha [24]: 100%; pest or weed control at 17933.6 g/ha [25]: 90%; pest or weed control at 17933.6 g/ha [26]: 100%; pest or weed control at 17933.6 g/ha [27]: 100%; pest or weed control at 17933.6 g/ha [28]: 100%; pest or weed control at 17933.6 g/ha [32]: 100%; plant injury at 17933.6 g/ha [34]: 100%; order of herbicidal activity [35]: high order of activity
CCC(C)n1c(=O)[nH]c2cccnc2c1=O (stereo not shown) [3-sec-butyl-pyrido[3,2-d] pyrimidine-2,4(1H,3H)-dione]	100	100	100	100	100	100	100	100	100	100	100	100	100	100	100	100	100	100	100	100	pest or weed control at 8966.8 g/ha [16]: 100%; plant injury at 8966.8 g/ha [17]: 90%; pest or weed control at 17933.6 g/ha [18]: 100%; pest or weed control at 17933.6 g/ha [20]: 100%; pest or weed control at 17933.6 g/ha [21]: 100%; pest or weed control at 17933.6 g/ha [22]: 100%; pest or weed control at 17933.6 g/ha [23]: 100%; pest or weed control at 17933.6 g/ha [24]: 100%; pest or weed control at 17933.6 g/ha [25]: 100%; pest or weed control at 17933.6 g/ha [26]: 100%; pest or weed control at 17933.6 g/ha [27]: 100%; pest or weed control at 17933.6 g/ha [28]: 100%; pest or weed control at 17933.6 g/ha [32]: 100%; plant injury at 17933.6 g/ha [34]: 100%; effective application rate [35]: substantially the same application rates, e.g., as similar or salt solutions in water, are effective
